Data on 1 molecule can be found in ChEMBL document CHEMBL1159240, “(-)-Roemerine, an aporphine alkaloid from Annona senegalensis that reverses the multidrug-resistance phenotype with cultured cells” (1995).

Test [1] deals with ZR-75-1. Nature of the test: Cytotoxicity against human ZR-75-1 cells after 72 hrs by SRB assay. As to conditions: ZR-75-1, 72 h, read-out: ED50 (the source's name). It counts as functional. In general terms: The SRB assay estimates cell density from bound dye.
Test [2] in a line: Cytotoxicity against human multidrug resistant KBV1 cells in presence of vinblastine. It counts as functional. As to conditions: KB-V1, read-out: ED50 (the source's name).
For test [3], the system named is Lu1. Nature of the test: Cytotoxicity against human Lu1 cells after 72 hrs by SRB assay. It counts as functional. As to conditions: Lu1, 72 h, read-out: ED50 (the source's name).
A short description of test [4]: Cytotoxicity against human U373 cells after 72 hrs by SRB assay. It counts as functional, U-373MG ATCC. As to conditions: U373 MG, read-out: ED50 (the source's name).
Test [5] can be described thus: Cytotoxicity against human KB3 cells after 72 hrs by SRB assay. Type of test: functional. As to conditions: KB3, 72 h, read-out: ED50 (the source's name).
Test [6] concerns P388. Nature of the test: Cytotoxicity against mouse P388 cells after 72 hrs by SRB assay. It counts as functional. As to conditions: P388, 72 h, read-out: ED50 (the source's name).
Test [7] can be described thus: Cytotoxicity against human BC1 cells after 72 hrs by SRB assay. It counts as functional. As to conditions: BC1, 72 h, read-out: ED50 (the source's name).
Test [8] has as its system Col2. Nature of the test: Cytotoxicity against human Col2 cells after 72 hrs by SRB assay. Type of test: functional. The following applies: Col2, 72 h, read-out: ED50 (the source's name).
Test [9] deals with A-431. Nature of the test: Cytotoxicity against human A431 cells after 72 hrs by SRB assay. It counts as functional. As to conditions: A-431, 72 h, read-out: ED50 (the source's name).
Test [10] has as its system SK-MEL-2. Nature of the test: Cytotoxicity against human SK-MEL-2 cells after 72 hrs by SRB assay. It counts as functional. As to conditions: SK-MEL-2, 72 h, read-out: ED50 (the source's name).
Test [11] concerns LNCaP. Nature of the test: Cytotoxicity against human LNCAP cells after 72 hrs by SRB assay. The following applies: read-out: ED50 (the source's name). It counts as functional.
Test [12] can be described thus: Cytotoxicity against human multidrug resistant KBV1 cells in absence of vinblastine after 72 hrs by SRB assay. The following applies: KB-V1, 72 h, read-out: ED50 (the source's name). Type of test: functional.
Test [13] has as its system HT. Nature of the test: Cytotoxicity against human HT cells after 72 hrs by SRB assay. It counts as functional. The following applies: read-out: ED50 (the source's name).

Values after ≈ are worked out from the molar mass of the structure shown. Bounds are passed on as bounds.

As to `CN1CCc2cc3c(c4c2[C@H]1Cc1ccccc1-4)OCO3`, the EC50 in [1] is greater than 20 µg/mL; in test [2], 0.6 µg/mL; in test [3] it was 6.6 µg/mL (≈ 23.6 µM); in [4], 5 µg/mL (≈ 17.9 µM); in [5], greater than 20 µg/mL; in test [6], greater than 5 µg/mL. In addition, the EC50 in test [7] is 8.3 µg/mL (≈ 29.7 µM); in test [8], 5.8 µg/mL (≈ 20.8 µM); in test [9], 4.3 µg/mL (≈ 15.4 µM); in test [10], greater than 20 µg/mL; in test [11], 10.7 µg/mL (≈ 38.3 µM); in test [12] it was greater than 20 µg/mL. The EC50 in [13] was determined as 6.4 µg/mL (≈ 22.9 µM).
